Here are results for 41 compounds from patent publication US11267811B2, “Small molecule inhibitors of galectin-3” (BRISTOL-MYERS SQUIBB COMPANY, priority 2017, dated 2022).

What is called IC50 is the concentration needed to halve the response being measured.

Like-named read-outs stand apart in the source and are kept apart here.

This assay addresses His-tagged recombinant human Gal-3 (hGal-3) (Homo sapiens (Human), UniProt P17931). The assay is described as follows: Gal-3 HTRF assay (His-tagged hGal-3 binding to B-ASF).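 Further: compounds preincubated 30 min with hGal-3, then 1 h with B-ASF, detection via terbium anti-His antibody and streptavidin d2. Control with B-ASF counts as full signal, omitting B-ASF as background.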
[1] abbreviates: HTRF, hGal-3 15 nM, B-ASF 15 nM, read-out: hGal-3 IC50.

Sequence of His-tagged recombinant human Gal-3 (hGal-3) (P17931 whole entry): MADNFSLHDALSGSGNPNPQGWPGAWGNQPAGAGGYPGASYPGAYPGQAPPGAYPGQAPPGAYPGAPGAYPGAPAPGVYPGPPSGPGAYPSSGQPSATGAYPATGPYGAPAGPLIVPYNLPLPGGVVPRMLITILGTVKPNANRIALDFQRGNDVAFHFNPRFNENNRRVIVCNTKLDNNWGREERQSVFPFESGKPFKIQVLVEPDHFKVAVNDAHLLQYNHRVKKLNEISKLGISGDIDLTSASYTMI

On to `OC[C@H]1O[C@@H](n2nncc2-c2ccccc2)[C@H](O)[C@@H](n2cc(-c3cc(F)c(F)c(F)c3)nn2)[C@H]1O` [Example 3], for which the IC50 under setting [1] was determined as 617 nM.

As for `OC[C@H]1O[C@@H](c2nncn2-c2ccccc2Cl)[C@H](O)[C@@H](n2cc(-c3cc(F)c(F)c(F)c3)nn2)[C@H]1O` [Example 89], under setting [1], the IC50 stood at 460 nM.

`O=C(NCc1cccnc1)c1nnc([C@@H]2O[C@H](CO)[C@H](O)[C@H](n3cc(-c4cccc(F)c4)nn3)[C@H]2O)o1` [Example 298, 5-((2R,3R,4S,5R,6R)-4-(4-(3-fluorophenyl)-1H-1,2,3-triazol-1-yl)-3,5-dihydroxy-6-(hydroxymethyl)tetrahydro-2H-pyran-2-yl)-N-(pyridin-3-ylmethyl)-1,3,4-oxadiazole-2-carboxamide]: the concentration for half-maximal inhibition (IC50) under setting [1] worked out at 43600 nM.

For `Cc1nc([C@H]2C[C@@H](n3cc(-c4cc(F)c(F)c(F)c4)nn3)[C@@H](O)[C@@H](CO)O2)n(-c2cc(Cl)ccc2C)n1` [Example 184], the IC50 under setting [1] was 90 nM.

In the case of `Cc1nc2ccc(-n3ncnc3[C@@H]3O[C@H](CO)[C@H](O)[C@H](n4cc(-c5ccc(CC#N)c(F)c5)nn4)[C@H]3O)cc2s1` [Example 231], the IC50 (read-out: hGal3 IC50) was determined as 390 nM.

In the case of `Cc1nc2ccc(-n3c([C@@H]4O[C@H](CO)[C@H](O)[C@H](n5cc(-c6cc(F)c(F)c(F)c6)nn5)[C@H]4O)nnc3C(C)(C)O)cc2s1` [Example 276, (2R,3R,4R,5R,6S)-2-(hydroxymethyl)-6-(5-(2-hydroxypropan-2-yl)-4-(2-methylbenzo[d]thiazol-6-yl)-4H-1,2,4-triazol-3-yl)-4-(4-(3,4,5-trifluorophenyl)-1H-1,2,3-triazol-1-yl)tetrahydro-2H-pyran-3,5-diol], the IC50 under setting [1] was 50 nM.

As for `OC[C@H]1O[C@@H](c2nncn2-c2ccc(Cc3ccncc3)cc2)[C@H](O)[C@@H](n2cc(-c3cc(F)c(F)c(F)c3)nn2)[C@H]1O` [Example 90], under setting [1], the IC50 came out at 520 nM.

In the case of `O=C(O)c1cccc(-n2ncnc2[C@@H]2O[C@H](CO)[C@H](O)[C@H](n3cc(-c4cc(F)c(F)c(F)c4)nn3)[C@H]2O)c1` [Example 31], the IC50 under setting [1] amounted to 1040 nM.

With `Cc1nc2ccc(-n3c(C(N)=O)nnc3[C@@H]3O[C@H](CO)[C@H](O)[C@H](n4cc(-c5cc(F)c(F)c(F)c5)nn4)[C@H]3O)cc2s1` [Example 277, 5-((2S,3R,4R,5R,6R)-3,5-dihydroxy-6-(hydroxymethyl)-4-(4-(3,4,5-trifluorophenyl)-1H-1,2,3-triazol-1-yl)tetrahydro-2H-pyran-2-yl)-4-(2-methylbenzo[d]thiazol-6-yl)-4H-1,2,4-triazole-3-carboxamide], the IC50 under setting [1] is 40 nM.

Take `Cc1nc([C@@H]2O[C@H](CO)[C@H](O)[C@H](n3cc(-c4cc(F)c(Br)c(F)c4)nn3)[C@H]2O)n(-c2ccc3ncsc3c2)n1` [Example A29]: the IC50 (read-out: hGal IC50) worked out at 27 nM.

On to `Cc1nc2ccc(-n3cnnc3[C@@H]3O[C@H](CO)[C@H](O)[C@H](n4cc(-c5cc(F)c(F)c(F)c5)nn4)[C@H]3O)cc2n1C` [Example 169], for which, under setting [1], the IC50 is 280 nM.

`OC[C@H]1O[C@@H](c2ncnn2-c2ccccc2Cl)[C@H](O)[C@@H](n2cc(-c3cc(F)c(F)c(F)c3)nn2)[C@H]1O` [Example 24]: the IC50 under setting [1] turned out to be 480 nM.

As for `OC[C@H]1O[C@@H](c2nncn2-c2ccc(Cl)c(C(F)(F)F)c2)[C@H](O)[C@@H](n2cc(-c3cc(F)c(F)c(F)c3)nn2)[C@H]1O` [Example 87], the IC50 under setting [1] was 100 nM.

Regarding `COc1ccc(-n2cnnc2[C@@H]2O[C@H](CO)[C@H](O)[C@H](n3cc(-c4cc(F)c(F)c(F)c4)nn3)[C@H]2O)cc1` [Example 98], the IC50 under setting [1] amounted to 450 nM.

For `OC[C@H]1O[C@@H](c2nncn2-c2ccc3nccnc3c2)[C@H](O)[C@@H](n2cc(-c3cc(F)c(F)c(F)c3)nn2)[C@H]1O` [Example 124], the IC50 under setting [1] amounted to 400 nM.

On to `Cc1nc([C@@H]2O[C@H](CO)[C@H](O)[C@H](n3cc(-c4ccc(Cl)c(F)c4)nn3)[C@H]2O)n(-c2ccc(Cl)c(Cl)c2)n1` [Example 252], for which the IC50 (read-out: hGal3 IC50) turned out to be 110 nM.

For `OC[C@H]1O[C@@H](c2nn[nH]c2-c2cccc(Cl)c2)[C@H](O)[C@@H](n2cc(-c3cc(F)c(F)c(F)c3)nn2)[C@H]1O` [Example 290, (2S,3R,4R,5R,6R)-2-(5-(3-chlorophenyl)-1H-1,2,3-triazol-4-yl)-6-(hydroxymethyl)-4-(4-(3,4,5-trifluorophenyl)-1H-1,2,3-triazol-1-yl)tetrahydro-2H-pyran-3,5-diol], under setting [1], the 50% inhibitory concentration (IC50) came to 3000 nM.

`CC(C)Oc1cccc(-n2cnnc2[C@@H]2O[C@H](CO)[C@H](O)[C@H](n3cc(-c4cc(F)c(F)c(F)c4)nn3)[C@H]2O)c1` [Example 105]: the IC50 under setting [1] came out at 330 nM.

As for `Cc1nc2ccc(-n3ncnc3[C@@H]3O[C@H](CO)[C@H](O)[C@H](n4cc(C(=O)N(C)C)nn4)[C@H]3O)cc2s1` [Example 196], the IC50 under setting [1] was 5650 nM.

Take `CO[C@@H]1[C@@H](n2cc(-c3cc(F)c(Cl)c(F)c3)nn2)[C@@H](O)[C@@H](CO)O[C@H]1c1nnc(C)n1-c1cc(Cl)ccc1C(F)(F)F` [Example 310]: the IC50 (read-out: hGal3 IC50) was determined as 22 nM.

As to `OC[C@H]1O[C@@H](c2nncn2-c2ccc(Oc3ccccc3)cc2)[C@H](O)[C@@H](n2cc(-c3cc(F)c(F)c(F)c3)nn2)[C@H]1O` [Example 104], the IC50 under setting [1] worked out at 820 nM.

As to `Cc1nc2ccc(-n3ncnc3[C@@H]3O[C@H](CO)[C@H](O)[C@H](n4cc(-c5cc(F)c(C#N)cc5C)nn4)[C@H]3O)cc2s1` [Example 235], for the setting “read-out: hGal3 IC50”, the IC50 amounted to 390 nM.

As for `Cc1nc2cc(Cl)c(-n3ncnc3[C@@H]3O[C@H](CO)[C@H](O)[C@H](n4cc(-c5cc(F)c(F)c(F)c5)nn4)[C@H]3O)cc2s1` [Example 51], the 50% inhibitory concentration (IC50) under setting [1] amounted to 70 nM.

As for `CNC(=O)c1nc([C@H]2C[C@@H](n3cc(-c4cccc(F)c4)nn3)[C@@H](O)[C@@H](CO)O2)n(-c2ccc3nc(C)sc3c2)n1` [Example 271, 5-((2R,4R,5R,6R)-4-(4-(3-fluorophenyl)-1H-1,2,3-triazol-1-yl)-5-hydroxy-6-(hydroxymethyl)tetrahydro-2H-pyran-2-yl)-N-methyl-1-(2-methylbenzo[d]thiazol-6-yl)-1H-1,2,4-triazole-3-carboxamide], the IC50 under setting [1] was 390 nM.

Turning to `OC[C@H]1O[C@@H](n2nncc2-c2ccc(Cl)cc2)[C@H](O)[C@@H](n2cc(-c3cc(F)c(F)c(F)c3)nn2)[C@H]1O` [Example 7], under setting [1], the IC50 stood at 329 nM.

Turning to `Cc1nc([C@@H]2O[C@H](CO)[C@H](O)[C@H](n3cc(-c4cc(F)c(F)c(F)c4)nn3)[C@H]2O)n(-c2nc3ccnn3cc2F)n1` [Example 66], the IC50 under setting [1] was found to be 3840 nM.

On to `Cc1nc([C@@H]2O[C@H](CO)[C@H](O)[C@H](n3cc(-c4cc(F)c(Cl)c(F)c4)nn3)[C@H]2O)n(-c2cc(Cl)cc3ccncc23)n1` [Example A37], for which the IC50 (read-out: hGal IC50) is 51 nM.

Take `CO[C@@H]1[C@@H](n2cc(-c3ccc(Cl)c(F)c3)nn2)[C@@H](O)[C@@H](CO)O[C@H]1c1nc(C)nn1-c1cc(Cl)ccc1C` [Example 258]: under setting [1], the half-inhibitory concentration (IC50) worked out at 60 nM.

Consider `Cn1cnc2ccc(-n3ncnc3[C@@H]3O[C@H](CO)[C@H](O)[C@H](n4cc(-c5cc(F)c(F)c(F)c5)nn4)[C@H]3O)cc21` [Example 48], for which the IC50 under setting [1] amounted to 110 nM.

For the compound `Cc1nc2ccc(-n3nc(C(F)(F)F)nc3[C@@H]3O[C@H](CO)[C@H](O)[C@H](n4cc(-c5cc(F)c(F)c(F)c5)nn4)[C@H]3O)cc2s1` [Example A4, (2R,3R,4R,5R,6S)-2-(Hydroxymethyl)-6-(1-(2-methylbenzo[d]thiazol-6-yl)-3-(trifluoromethyl)-1H-1,2,4-triazol-5-yl)-4-(4-(3,4,5-trifluorophenyl)-1H-1,2,3-triazol-1-yl)tetrahydro-2H-pyran-3,5-diol], the IC50 under setting [1] was found to be 58 nM.

As to `OC[C@H]1O[C@@H](c2ncnn2-c2cc(Cl)cc(Cl)c2)[C@H](O)[C@@H](n2cc(-c3cc(F)c(F)c(F)c3)nn2)[C@H]1O` [Example 41], the IC50 under setting [1] stood at 110 nM.

`CO[C@@H]1[C@@H](n2cc(-c3cc(F)c(Cl)c(F)c3)nn2)[C@@H](O)[C@@H](CO)O[C@H]1c1nncn1-c1cc(Cl)ccc1C(F)(F)F` [Example 308]: the IC50 (read-out: hGal3 IC50) came out at 22 nM.

Consider `Cc1nc([C@@H]2O[C@H](CO)[C@H](O)[C@H](n3cc(-c4cc(F)c(Cl)c(F)c4)nn3)[C@H]2O)n(-c2cc(Cl)ccc2C(C)(C)C)n1` [Example A42], for which the IC50 (read-out: hGal IC50) was determined as 11 nM.

On to `OC[C@H]1O[C@@H](c2nncn2-c2cc(F)cc(Cl)c2)[C@H](O)[C@@H](n2cc(-c3cc(F)c(F)c(F)c3)nn2)[C@H]1O` [Example 140], for which the IC50 under setting [1] amounted to 130 nM.

As to `Cc1nc([C@@H]2O[C@H](CO)[C@H](O)[C@H](n3cc(-c4cc(F)c(Cl)c(F)c4)nn3)[C@H]2O)n(-c2cc(Cl)c(Cl)cc2Cl)n1` [Example A53], under “read-out: hGal IC50”, the concentration for half-maximal inhibition (IC50) turned out to be 58 nM.

Turning to `OC[C@H]1O[C@@H](c2ncnn2-c2ccc(C(F)(F)F)cc2)[C@H](O)[C@@H](n2cc(-c3cc(F)c(F)c(F)c3)nn2)[C@H]1O` [Example 25], under setting [1], the IC50 came to 560 nM.

For the compound `Cc1nc2ccc(-n3ncnc3[C@@H]3O[C@H](CO)[C@H](O)[C@H](n4cc(-c5ccc(F)cc5)nn4)[C@H]3O)cc2s1` [Example 224, (2R,3R,4R,5R,6S)-4-(4-(4-fluorophenyl)-1H-1,2,3-triazol-1-yl)-2-(hydroxymethyl)-6-(1-(2-methylbenzo[d]thiazol-6-yl)-1H-1,2,4-triazol-5-yl)tetrahydro-2H-pyran-3,5-diol], the IC50 under setting [1] stood at 330 nM.

As to `OC[C@H]1O[C@@H](c2nncn2-c2ccc(Cl)cc2)[C@H](O)[C@@H](n2cc(-c3cc(F)c(F)c(F)c3)nn2)[C@H]1O` [Example 75], the IC50 under setting [1] was 330 nM.

For the compound `Cc1nc2ccc(-n3ncnc3[C@@H]3O[C@H](CO)[C@H](O)[C@H](n4cc(-c5ccc(N(C)S(C)(=O)=O)c(F)c5)nn4)[C@H]3O)cc2s1` [Example 208], the IC50 (read-out: hGal3 IC50) came out at 3820 nM.

Take `Cc1nc([C@@H]2O[C@H](CO)[C@H](O)[C@H](n3cc(-c4cc(F)c(Br)c(F)c4)nn3)[C@H]2O)n(-c2cc3sc(C)nc3cc2C(F)(F)F)n1` [Example A33]: where the note is “read-out: hGal IC50”, the IC50 turned out to be 103 nM.

On to `OC[C@H]1O[C@@H](c2ncnn2-c2ccc(Cl)cc2)[C@H](O)[C@@H](n2cc(-c3cc(F)c(F)c(F)c3)nn2)[C@H]1O` [Example 43], for which the IC50 under setting [1] turned out to be 610 nM.
